Counter-ions that a name gives are not always drawn.
How the values were obtained:
Assay type in all cases: in vivo, human
Details in all cases: patient history before treatment with Example 1
[1] = Case 8: topical treatment of a child
[2] = Case 7: topical treatment of a person
Text: A person with several year history of an itchy rash on the dorsum of their right foot presented (see FIG. 7A). They had previously tried many creams including various antifungal treatments, antibiotics and steroids, Particularly, they had tried Kenacomb™ (Triamcinolone acetonide, nystatin, gramicidin, neomycin); Mometasone Furoate 0.1% (Elocon™); Terbinafine Hydrochloride 1.0% (Lamisil™); Clotrimazole (sold under the trade name Canestan™) and Mupirocin (2% w/w) (sold under the trade name Bactroban™). […] There were areas of broken skin with scattered scab formation.
A diagnosis of chronic dermatitis with lichenification was made and treatment commenced with the composition of Example 1.
In less than one week the rash had disappeared (FIG. 7B).

[3] = Case 1: topical treatment of a person
Text: A diagnosis of periorbital dermatitis with lichenification was made and treatment using the formulation of Example 1 commenced.

Structure (SMILES): CCC(=O)OCC(=O)[C@@]1(OC(=O)CC)[C@@H](C)C[C@H]2[C@@H]3CCC4=CC(=O)C=C[C@]4(C)[C@@]3(F)[C@@H](O)C[C@@]21C [Betamethasone dipropionate 0.05%, Betamethasone dipropionate]
- outcome of previously tried products [1]: no permanent improvement

Structure (SMILES): Clc1ccccc1C(c1ccccc1)(c1ccccc1)n1ccnc1 [Clotrimazole]
- outcome of previously tried products [1]: no permanent improvement
- outcome of previously tried treatments [2]: None of the treatments gave them any long term results

Structure (SMILES): CC(=O)OCC(=O)[C@@]1(O)CC[C@H]2[C@@H]3CCC4=CC(=O)CC[C@]4(C)[C@H]3[C@@H](O)C[C@@]21C [Hydrocosrtisone acetate 1%, Hydrocosrtisone acetate]
- outcome of previously tried products [1]: no permanent improvement
- outcome of previously used treatments [3]: no long term improvement

Structure (SMILES): CCC(=O)O[C@]1(C(=O)COC(C)=O)CC[C@H]2[C@@H]3C[C@H](C)C4=CC(=O)C=C[C@]4(C)[C@H]3[C@@H](O)C[C@@]21C [Methylprednisolone aceponate]
- outcome of previously tried products [1]: no permanent improvement

Structure (SMILES): C[C@@H]1C[C@H]2[C@@H]3CCC4=CC(=O)C=C[C@]4(C)[C@@]3(Cl)[C@@H](O)C[C@]2(C)[C@@]1(OC(=O)c1ccco1)C(=O)CCl [Mometasone Furoate 0.1%, Mometasone Furoate]
- outcome of previously tried treatments [2]: None of the treatments gave them any long term results
- outcome of previously used treatments [3]: no long term improvement

Structure (SMILES): C/C(=C\C(=O)OCCCCCCCCC(=O)O)C[C@@H]1OC[C@H](C[C@@H]2O[C@H]2[C@@H](C)[C@H](C)O)[C@@H](O)[C@H]1O [Mupirocin (2% w/w), Mupirocin]
- outcome of previously tried treatments [2]: None of the treatments gave them any long term results

Structure (SMILES): CN(C/C=C/C#CC(C)(C)C)Cc1cccc2ccccc12 [Terbinafine Hydrochloride 1.0%, Terbinafine Hydrochloride]
- outcome of previously tried products [1]: no permanent improvement
- outcome of previously tried treatments [2]: None of the treatments gave them any long term results
- outcome of previously used treatments [3]: no long term improvement

Source: patent US20140057881A1, “Composition for the Treatment of Skin Conditions” (priority 2010, published 2014)
